Measured values: patent publication US6046239A, “Anthranilic acid analogs” (American Home Products Corporation, priority 1998, dated 2000)
Structures can show the parent of a compound that is named as a salt. Where two headings read alike, the source gives them in different places.

What was measured:
[1] = tested on: Isolated Rat Bladder Strips; experiment: Inhibition of contractions in isolated rat bladder strips; assay type: cell-based; conditions: for IC50: contractions enhanced by additional 15 mM KCl, read-out: IC50 /μM Bladder (B); for IC50 (A)/ IC50 (B): ratio aorta/bladder, indication of selectivity
Description: Sprague-Dawley rats (150-200 g) are rendered unconscious by CO2 asphyxiation and then euthanized by cervical dislocation. […] The bladder is opened and then cut into strips 1-2 mm in width and 7-10 mm in length. The strips are subsequently suspended in a 10 mL tissue bath under an initial resting tension of 1.5 g. The strips are held in place by two surgical clips one of which is attached to a fixed hook while the other is attached to an isometric force transducer. […] The carbachol is then washed out and the tissue allowed to relax to its resting level of activity. Following a further 30 min period of recovery an additional 15 mM KCl are introduced into the tissue bath. […] Following stabilization of this enhanced level of contractile activity, incremental increases in the concentration of test compound or vehicle are introduced into the tissue bath. Contractile activity is measured for each compound or vehicle concentration during the last minute of a 30 minute challenge.

Aorta = experiment: Inhibition of contractions in aorta (indication of selectivity); assay type: cell-based; conditions: aorta
[2] = tested on: hypertrophied bladder (detrussor) smooth muscle; experiment: Inhibition of spontaneous contractions in vivo, hypertrophied rat bladder model; conditions: 30 mg/kg i.v.
From the text: In addition, we tested the ability of compounds to inhibit the hyperactivity of hypertrophied bladder (detrussor) smooth muscle in conscious female rats with hypertrophied bladders and thereby alleviate urinary incontinence in rats according to the following protocol described by Malmgrem (A. Malmgrem, K. E. Andersson, C. Sjogren, P. O. Andersson, Effects of Pinacidil and Cromakalim (BRL 34915) on Bladder Function in Rats with Detrusor Instability, J. Urol. 142:1134, 1989.):
Female Sprague-Dawley rats, ranging in weight from 190-210 g are used. Up to 25 animals are prepared each time. After development of bladder hypertrophy 4-8 animals are used per test.
Compounds are dissolved in PEG-200 and administered by gastric gavage or intraveneously in a volume of 5 mL/kg. For primary screening all drugs are administered at the arbitrary dose of 10 mg/kg p.o. to groups of 4 rats.
The animals are anesthetized with halothane. […]
The following urodynamic variables are recorded:
The mean value of each variable is calculated before and after compound administration. For each compound the changes in the variables measured are compared to the values obtained before treatment and expressed as percent inhibition. The data are also subjected to 2-way analysis of variance to determine significant (p<0.05) changes in the variable measured. […]

[3] = target: T1, calcium-dependent large conductance potassium channels (maxi K^+) (Rattus norvegicus, UniProt Q62976); experiment: Potassium channel activation, whole cell patch clamp in isolated rat detrusor cells; assay type: cell-based; conditions: glyburide 5 μM added to the superfusate; data not shown
T1 construct: endogenous in cells; host or cells: freshly isolated rat detrusor (urinary bladder smooth muscle) cells
Description: Potassium channel activation by compounds of the present invention was established by examining the effect of the compound of Example 1 on calcium-dependent large conductance potassium channels (maxi K^+) as follows:
Rat detrusor cells were isolated in a manner previously described for guinea-pig detrusor (Sheldon and Argentieri, 1995). Male Sprague-Dawley rats (200-400 grams) were euthanized by CO2 inhalation and exsanguination. Their urinary bladders were rapidly removed and placed in 37° C. physiological solution with the following composition (mM): Na glutamate (80.0), NaCl (54.7), KCl (5.0), NaHCO3 (25.0), MgCl2.2H2 O (2.5), D-glucose (11.8) and CaCl2 (0.2) gassed with CO2 --O2, 95%/5% for a final pH of 7.4. The dome of the bladder was isolated from the trigon region and the mucosa was removed. This tissue was then cut into 2-3 mm wide strips and placed in fresh buffer for 1 hour. Tissues were then transferred into 10.0 ml of an isolation buffer containing the above composition plus collagenase type VIII (1.0 mg/ml) and pronase (0.25 mg/ml). After 10 minutes the isolation buffer was replaced with fresh isolation buffer for an additional 10 min. […]
Whole cell recordings were made using broken patch assess. […] After stability was achieved control currents were recorded. […] Currents were recorded for 5 to 10 minutes or until compound effects reached steady state. […]

[4] = Rattus norvegicus, isolated rat bladder strips
[5] = isolated rat bladder strips, lithium salt hemihydrate

T1 sequence (Q62976 whole entry): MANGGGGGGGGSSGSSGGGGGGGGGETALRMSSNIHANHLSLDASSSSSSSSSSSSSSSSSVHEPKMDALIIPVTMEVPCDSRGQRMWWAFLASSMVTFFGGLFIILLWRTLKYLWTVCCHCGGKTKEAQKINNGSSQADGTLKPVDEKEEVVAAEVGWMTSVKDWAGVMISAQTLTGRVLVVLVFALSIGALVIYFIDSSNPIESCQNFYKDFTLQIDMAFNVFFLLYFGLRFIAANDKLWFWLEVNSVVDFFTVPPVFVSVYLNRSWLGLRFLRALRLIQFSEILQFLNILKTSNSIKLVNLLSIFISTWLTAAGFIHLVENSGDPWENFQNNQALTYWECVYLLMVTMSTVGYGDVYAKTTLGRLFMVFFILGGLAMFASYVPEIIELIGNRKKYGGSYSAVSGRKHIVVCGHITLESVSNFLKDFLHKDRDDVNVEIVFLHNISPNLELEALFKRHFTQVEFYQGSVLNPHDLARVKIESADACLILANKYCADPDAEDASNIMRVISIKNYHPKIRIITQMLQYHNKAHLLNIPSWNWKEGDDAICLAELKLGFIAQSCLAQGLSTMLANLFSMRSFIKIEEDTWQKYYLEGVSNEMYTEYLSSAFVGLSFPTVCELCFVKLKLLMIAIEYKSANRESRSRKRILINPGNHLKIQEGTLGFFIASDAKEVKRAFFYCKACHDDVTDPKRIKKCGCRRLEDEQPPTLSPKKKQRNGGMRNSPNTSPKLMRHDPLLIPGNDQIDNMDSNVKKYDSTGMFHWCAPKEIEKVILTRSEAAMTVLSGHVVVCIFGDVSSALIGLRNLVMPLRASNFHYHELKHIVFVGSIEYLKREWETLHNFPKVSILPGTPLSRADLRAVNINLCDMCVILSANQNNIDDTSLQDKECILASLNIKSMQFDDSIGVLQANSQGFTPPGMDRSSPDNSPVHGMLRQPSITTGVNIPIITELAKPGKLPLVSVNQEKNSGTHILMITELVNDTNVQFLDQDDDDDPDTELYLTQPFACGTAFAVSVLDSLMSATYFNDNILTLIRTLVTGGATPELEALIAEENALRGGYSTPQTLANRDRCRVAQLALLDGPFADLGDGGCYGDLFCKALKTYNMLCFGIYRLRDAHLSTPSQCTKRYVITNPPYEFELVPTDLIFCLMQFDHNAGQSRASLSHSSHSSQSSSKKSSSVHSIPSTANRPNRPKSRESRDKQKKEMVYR
T1 sequence (P97678 whole entry partner): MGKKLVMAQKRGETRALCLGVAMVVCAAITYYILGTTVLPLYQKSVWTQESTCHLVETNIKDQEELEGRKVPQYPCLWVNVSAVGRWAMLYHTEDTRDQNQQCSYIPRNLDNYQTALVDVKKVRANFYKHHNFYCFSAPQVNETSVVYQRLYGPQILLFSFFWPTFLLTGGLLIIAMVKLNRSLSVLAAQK

For C/C(=C\c1ccc(C(F)(F)F)cc1)C(=O)Nc1ccccc1C(=O)O [Example 1, Step 3, (E)-2-[2-Methyl-3-(4trifluoromethyl-phenyl)-acryloylamino]-benzoic acid], the IC50 [1, 4] was 3.7 ± 2.1 µM, the “IC50 (A)/ IC50 (B)” value [1] was 16.5 and the IC50 (Aorta) was 61.2 ± 9.2 µM.

In the case of O=C(CCc1ccc(C(F)(F)F)cc1)Nc1ccccc1C(=O)O [Example 2, 2-[3-(4-Trifluoromethyl-phenyl)-propionylamino]-benzoic acid], the IC50 [1, 4] is reported as 14.1 ± 1.77 µM, the “IC50 (A)/ IC50 (B)” value [1] is reported as 8.4 and the IC50 (Aorta) is reported as 118 ± 27.6 µM.

With O=C(/C=C/c1ccc(Br)cc1)Nc1ccccc1C(=O)O [Example 3, (E)-2-[3-(4-Bromo-phenyl)-acryloylamino]-benzoic acid] the IC50 [1, 4] was 4.9 ± 2.6 µM, the “IC50 (A)/ IC50 (B)” value [1] was 11 and the IC50 (Aorta) was 53.5 ± 7 µM.

For O=C(/C=C/c1ccc(C(F)(F)F)cc1)Nc1ccccc1C(=O)O [Example 4], the IC50 [1, 4] was 3.37 ± 0.59 µM, the “IC50 (A)/ IC50 (B)” value [1] was 11.7 and the IC50 (Aorta) was 39.5 ± 12 µM.

With O=C(/C=C/c1ccc(C(F)(F)F)cc1)Nc1ccccc1C(=O)O [Example 5, (E)-2-[3[(4-Trifluoromethyl-phenyl)-acryloylamino]-benzoic acid lithium salt hemihydrate] the IC50 [1, 5] was 5.3 ± 2.8 µM, the “IC50 (A)/ IC50 (B)” value ([1]; lithium salt hemihydrate) was 27.5 and the IC50 (Aorta; lithium salt hemihydrate) was 146 ± 49 µM.

C=C(CC(=O)Nc1ccccc1C(=O)O)c1ccc(C(F)(F)F)cc1 [Example 6, 2-[3-(4-Trifluoromethyl-phenyl)-but-3-enoylamino]-benzoic acid] was tested, and the IC50 [1, 4] was 18.1 ± 4.2 µM.

Work on C/C(=C\C(=O)Nc1ccccc1C(=O)O)c1ccc(C(F)(F)F)cc1 [Example 7, (E)-2-[3-(4-Trifluoromethyl-phenyl)-but-2-enoylamino]-benzoic acid sodium salt] yielded an IC50 ([1]; isolated rat bladder strips) of 7.4 ± 4 µM.

In the case of C/C(=C\c1ccc(C(F)(F)F)cc1)C(=O)Nc1ccc(Cl)cc1C(=O)O [Example 8], the IC50 ([1]; isolated rat bladder strips) is reported as 1.18 ± 0.45 µM, the “IC50 (A)/ IC50 (B)” value [1] is reported as 3.58 and the IC50 (Aorta) is reported as 4.23 ± 0.66 µM.

With C/C(=C\c1ccc(C(F)(F)F)cc1)C(=O)Nc1ccc(Cl)cc1C(=O)O [Example 9, (E)-5-Chloro-2-[2-methyl-3-(4-trifluoromethyl-phenyl)-acryloylamino]-benzoic acid lithium salt hemihydrate] the IC50 [1, 5] was 0.52 ± 0.24 µM, the “IC50 (A)/ IC50 (B)” value ([1]; lithium salt hemihydrate) was 5.31 and the IC50 (Aorta; lithium salt hemihydrate) was 2.76 ± 1.63 µM. For the same compound, the “% Red (F): percent reduction in the total number of spontaneous contractions” value [2] was -71 ± 6%.

In the case of C/C(=C\c1ccc(C(F)(F)F)cc1)C(=O)Nc1cc(Cl)ccc1C(=O)O [Example 10, (E)-4-Chloro-2-[2-methyl-3-(4-trifluoromethyl-phenyl)-acryloylamino]-benzoic acid], the IC50 ([1]; isolated rat bladder strips) is reported as 1.44 ± 0.85 µM, the “IC50 (A)/ IC50 (B)” value [1] is reported as 4.81 and the IC50 (Aorta) is reported as 6.93 ± 2.4 µM.

C/C(=C\c1ccc(C(F)(F)F)cc1)C(=O)Nc1cc(Cl)ccc1C(=O)O [Example 11, (E)-4-Chloro-2-[2-methyl-3-(4-trifluoromethyl-phenyl)-acryloylamino]-benzoic acid lithium salt hemihydrate] showed an IC50 [1, 5] of 3.45 ± 0.75 µM.

In the case of C/C(=C\c1ccc(C(F)(F)F)cc1)C(=O)Nc1ncccc1C(=O)O [Example 12, (E)-2-[2-Methyl-3-(4-trifluoromethyl-phenyl)-acryloylamino]-nicotinic acid], the IC50 [1, 4] is reported as 11.4 ± 3.8 µM.

With COc1ccc(NC(=O)/C(C)=C/c2ccc(C(F)(F)F)cc2)c(C(=O)O)c1 [Example 13, (E)-5-Methoxy-2-[2-methyl-3-(4-trifluoromethyl-phenyl)-acryloylamino]-benzoic acid] the IC50 [1, 4] was 9.6 ± 7.4 µM.

With CCN(CC)C(=O)COC(=O)c1ccccc1NC(=O)/C(C)=C/c1ccc(C(F)(F)F)cc1 [Example 14, (E)-2-[2-Methyl-3-(4-trifluoromethyl-phenyI)-acryloylamino]-benzoic acid diethylcarbamoylmethyl ester] the inhibition at 30 µM ([1]; 30 μM, isolated rat bladder strips, read-out: I = Percent inhibition at 30 μM) was 35.6 ± 5% and the IC50 [1, 4] was 10.8 ± 0.6 µM.

With COc1ccc(/C=C/C(=O)Nc2ccccc2C(=O)O)cc1OC [Tranilast, reference compound] the IC50 [1, 4] was 14.4 ± 4.5 µM, the “smooth muscle relaxant potency and bladder selectivity” value ([1]; bladder tissue over vascular tissue, Table 1) was “not to be a potent or bladder selective smooth muscle relaxant” and the IC50 (Aorta) was 15.6 ± 8.96 µM.

COc1ccc(Cl)cc1C(=O)NCCc1ccc(S(=O)(=O)NC(=O)NC2CCCCC2)cc1 [glyburide, reference compound] was tested, and the “effect of glyburide on outward current” value [3] was “no effect”.
